From ChEMBL document CHEMBL3272295, “Drugs derived from cannabinoids. 5. delta6a,10a-Tetrahydrocannabinol and heterocyclic analogs containing aromatic side chains” (J Med Chem, 1976)
Activity calls are given as the source filed them. The calls are words filed in the database; no cut-off is given here.

Key:
Rattus norvegicus [1] = test: Antianxiety activity in Long-Evans rat assessed as reduction in motor activity at 5 mg/kg, po after 2 hrs relative to vehicle-treated control; format: functional; parameters: scale not given: the % may be the effect or the level left
Mus musculus [2] = test: Anticonvulsant activity in po dosed mouse assessed as dose required to protect 80% of animal measured after 1 to 4 hrs by audiogenic seizure test; format: functional
Felis catus [3] = test: Hypnotic activity in cat assessed as decrease in non-REM sleep time at 4 mg/kg administered orally through diet measured for 12 hrs by EEG analysis; format: functional; settings: route oral
Rattus norvegicus [4] = test: Antihypertensive activity in spontaneously hypertensive rat model assessed as reduction in blood pressure at 25 mg/kg, po after 3 hrs; format: functional; parameters: scale not given: the % may be the effect or the level left
Rattus norvegicus [5] = test: Antipsychotic activity in rat assessed as reduction of methamphetamine-induced hyperactivity at 5 mg/kg, po administered prior to methamphetamine challenge relative to vehicle-treated control; format: functional; parameters: scale not given: the % may be the effect or the level left
Rhesus monkey = test: Antianxiety activity in po dosed rhesus monkey assessed as antiagressive behavior measured every hour post dosing; format: functional; settings: Macaca mulatta, read-out: MED
Rattus norvegicus [6] = test: Antisecretory activity in Sprague-Dawley rat assessed as decrease in acidity at 50 mg/kg, po administered 30 mins prior to pylorus ligation measured after 4 hrs relative to control; format: functional; parameters: scale not given: the % may be the effect or the level left
Rattus norvegicus [7] = test: Antihypertensive activity in spontaneously hypertensive rat model assessed as reduction in blood pressure at 25 mg/kg, po after 24 hrs; format: functional; parameters: scale not given: the % may be the effect or the level left
Felis catus [8] = test: Hypnotic activity in cat assessed as increase in non-REM sleep time at 1 mg/kg administered orally through diet measured for 12 hrs by EEG analysis; format: functional; settings: route oral
[9] = Acute toxicity in po dosed mouse; format: organism-based; settings: in vivo
Mus musculus [10] = test: Antidepressant activity in mouse assessed as potentiation of DOPA-induced effect at 5 mg/kg, po administered 4 hrs prior to DOPA challenge; format: functional, organism-based; parameters: dose 5 mg/kg
Rattus norvegicus [11] = test: Antihypertensive activity in spontaneously hypertensive rat model assessed as reduction in blood pressure at 10 mg/kg, po after 24 hrs; format: functional; parameters: scale not given: the % may be the effect or the level left
Rattus norvegicus [12] = test: Increase in pepsin output in Sprague-Dawley rat at 50 mg/kg, po administered 30 mins prior to pylorus ligation measured after 4 hrs relative to control; format: functional
Rattus norvegicus [13] = test: Increase in volume in Sprague-Dawley rat at 50 mg/kg, po administered 30 mins prior to pylorus ligation measured after 4 hrs relative to control; format: functional
Rattus norvegicus [14] = test: Antianxiety activity in Long-Evans rat assessed as reduction in motor activity at 20 mg/kg, po after 2 hrs relative to vehicle-treated control; format: functional; parameters: scale not given: the % may be the effect or the level left
Rattus norvegicus [15] = organism: Rattus norvegicus; test: animal or person; format: functional; settings: Charles River, route oral
Description: Antidiarrheal activity in Charles River rat assessed as inhibition of castor oil-induced diarrhea by measuring protected animals at 0.5 mg/kg, po administered 1 hr prior to castor oil challenge measured after 1 hr relative to vehicle-treated control

Canis familiaris = test: Antianxiety activity in po dosed dog assessed as ataxia administered as single dose measured up to 24 hrs; format: functional; settings: Canis lupus familiaris, read-out: MED
Felis catus [16] = test: Hypnotic activity in cat assessed as increase in total sleep time at 1 mg/kg administered orally through diet measured for 12 hrs by EEG analysis; format: functional; settings: route oral
Rattus norvegicus [17] = test: Antihypertensive activity in spontaneously hypertensive rat model assessed as reduction in blood pressure at 10 mg/kg, po after 3 hrs; format: functional; parameters: scale not given: the % may be the effect or the level left
Rattus norvegicus [18] = test: Antipsychotic activity in rat assessed as reduction of methamphetamine-induced hyperactivity at 10 mg/kg, po administered prior to methamphetamine challenge relative to vehicle-treated control; format: functional; parameters: scale not given: the % may be the effect or the level left
Rattus norvegicus [19] = test: Antisecretory activity in Sprague-Dawley rat assessed as decrease in acid output at 50 mg/kg, po administered 30 mins prior to pylorus ligation measured after 4 hrs relative to control; format: functional; parameters: scale not given: the % may be the effect or the level left
Rattus norvegicus [20] = test: Increase in pepsin concentration in Sprague-Dawley rat at 50 mg/kg, po administered 30 mins prior to pylorus ligation measured after 4 hrs relative to control; format: functional
Felis catus [21] = test: Hypnotic activity in cat assessed as increase in total sleep time at 4 mg/kg administered orally through diet measured for 12 hrs by EEG analysis; format: functional; settings: route oral
Mus musculus [22] = test: Antianxiety activity in albino BALB/cJ mouse assessed as reduction in footshock-induced fighting behavior at 10 mg/kg, po after 30 to 90 mins; format: functional; parameters: scale not given: the % may be the effect or the level left
Mus musculus [23] = test: Analgesic activity in po dosed mouse assessed as inhibition of acetic acid-induced writhing administered 30 mins prior to acetic acid challenge measured after 5 mins for 20 mins; format: functional
Rattus norvegicus [24] = organism: Rattus norvegicus; test: animal or person; format: functional; settings: Charles River, route oral; remark: listed apart in the source
Description: Antidiarrheal activity in Charles River rat assessed as inhibition of castor oil-induced diarrhea by measuring protected animals at 1 mg/kg, po administered 1 hr prior to castor oil challenge measured after 1 hr relative to vehicle-treated control

Rattus norvegicus [25] = organism: Rattus norvegicus; test: animal or person; settings: Charles River, po, read-out: INH
Description: Antidiarrheal activity in Charles River rat assessed as inhibition of castor oil-induced diarrhea by measuring protected animals at 2 mg/kg, po administered 1 hr prior to castor oil challenge measured after 1 hr relative to vehicle-treated control

SMILES: CCCCCc1cc(O)c2c(c1)OC(C)(C)[C@@H]1CCC(C)=C[C@@H]21 [DRONABINOL]
- Activity (Rattus norvegicus [1]): 14%
- Activity (Mus musculus [2]): 20 mg/kg
- Time (Felis catus [3]): -3 min
- Activity (Rattus norvegicus [4]): 39%
- Activity (Rattus norvegicus [5]): 15%
- minimal effective dose (Rhesus monkey): 1 mg/kg
- Activity (Rattus norvegicus [6]): 7.5%
- Activity (Rattus norvegicus [7]): 21%
- Time (Felis catus [8]): 1 min
- LD50 [9]: ≥ 1000 mg/kg
- Activity (Mus musculus [10]): Active
- Activity (Rattus norvegicus [11]): 8%
- Activity (Rattus norvegicus [12]): 8.9%
- Activity (Rattus norvegicus [13]): 0.7%
- Activity (Rattus norvegicus [14]): 72%
- inhibition in vivo at 0.5 mg/kg (Rattus norvegicus [15]): 0%
- minimal effective dose (Canis familiaris): 0.5 mg/kg
- Time (Felis catus [16]): 29 min
- Activity (Rattus norvegicus [17]): 6%
- Activity (Rattus norvegicus [18]): 41%
- Activity (Rattus norvegicus [19]): 7.3%
- Activity (Rattus norvegicus [20]): 8.2%
- Time (Felis catus [21]): 17 min
- Activity (Mus musculus [22]): 68%
- ED50 (Mus musculus [23]): 43 mg/kg

SMILES: CN1CC[C@]23c4c5ccc(O)c4O[C@H]2[C@@H](O)C=C[C@H]3[C@H]1C5
- inhibition in vivo at 1 mg/kg (Rattus norvegicus [24]): 30%
- inhibition in vivo at 0.5 mg/kg (Rattus norvegicus [15]): 0%
- inhibition in vivo at 2 mg/kg (Rattus norvegicus [25]): 50%
